From US20230049952A1, “METHODS AND COMPOUNDS FOR RESTORING MUTANT P53 FUNCTION” (PMV Pharmaceuticals, Inc., priority 2020, published 2023)

Experiments:
CYP2B6 [1] = molecular target: T1, CYP2B6 (Homo sapiens, UniProt P20813); test: CYP inhibition in human liver microsomes; assay type: in vitro ADME; set-up: from tissue; host or cells: pooled human liver microsomes, 200 donors; settings: both sexes, pooled human liver microsomes, pH 7.4, HLM, read-out: % of Control Enzyme Activity
T1 sequence (P20813 1-491): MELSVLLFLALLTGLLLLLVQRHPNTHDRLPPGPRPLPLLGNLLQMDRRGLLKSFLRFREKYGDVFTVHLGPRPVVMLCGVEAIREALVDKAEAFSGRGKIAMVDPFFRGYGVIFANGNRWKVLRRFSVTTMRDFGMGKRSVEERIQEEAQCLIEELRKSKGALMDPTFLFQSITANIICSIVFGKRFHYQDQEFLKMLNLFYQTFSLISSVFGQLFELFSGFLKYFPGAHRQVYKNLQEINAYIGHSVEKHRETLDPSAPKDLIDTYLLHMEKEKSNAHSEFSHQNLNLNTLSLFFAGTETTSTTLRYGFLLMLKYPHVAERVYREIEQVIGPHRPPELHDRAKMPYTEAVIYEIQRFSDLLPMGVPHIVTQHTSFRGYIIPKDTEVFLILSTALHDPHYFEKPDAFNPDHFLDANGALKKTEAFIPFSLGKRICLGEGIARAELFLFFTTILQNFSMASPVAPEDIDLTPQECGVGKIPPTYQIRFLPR
Method: The HLMs were stored at −80° C. until use.
Negative (vehicle) controls were conducted without a test article.

CYP2B6 [2] = molecular target: T1, CYP2B6; test: time-dependent CYP inhibition in human liver microsomes (IC50 shift); settings: both, pooled human liver microsomes, pH 7.4, % of Control Enzyme Activity; for activity at 20 min, 0.37 µM: 0.370 μM
in vitro = settings: male, plasma
Method: Studies were carried out in mixed-gender human plasma, male Sprague-Dawley rat plasma, male CD-1 mouse plasma, male Beagle dog plasma, and male Cynomolgus monkey plasma collected on sodium heparin. A Rapid Equilibrium Dialysis (RED) device was used for all experiments. […] Blank PBS (500 μL) was added to each corresponding receiver chamber. The device was then placed into an enclosed heated rocker that was pre-warmed to 37° C., and allowed to incubate for four hours. After 4 hours of incubation, both sides were sampled.
Aliquots (50 μL for donor, 200 μL for receiver) were removed from the chambers and placed into a 96-well plate. Plasma (50 μL) was added to the wells containing the receiver samples, and 200 μL of PBS was added to the wells containing the donor samples. Two volumes of acetonitrile were added to each well, and the plate was mixed and then centrifuged at 3,000 rpm for 10 minutes. Aliquots of the supernatant were removed, and analyzed by LCMS/MS. Calibration standards were prepared in a matched matrix and prepared similarly to the assay samples. Binding and recovery values were calculated as follows: % Bound=[(Concentration in Donor−Concentration in Receiver)/(Concentration in Donor)]×100; % Recovery=[(Concentration in Donor+Concentration in Receiver)/(Nominal Dosing Concentration)]×100.

[3] = metabolic stability in cryopreserved hepatocytes; assay type: in vitro ADME, rat
Method: (§1) Mixed-gender human cryopreserved hepatocytes, male Sprague-Dawley rat cryopreserved hepatocytes, male CD-1 mouse cryopreserved hepatocytes, male beagle dog cryopreserved hepatocytes, and male cynomolgus monkey cryopreserved hepatocytes were used for the study. The hepatocytes were thawed, pooled into Krebs Henseleit buffer (KHB, pH 7.4), and kept on ice prior to the experiments. […] Each experiment was performed in triplicate. The final DMSO content in the incubation mixture was ≤0.1%. […] Positive controls, testosterone (1 μM) and 7-hydroxycoumarin (7-HC) (100 μM), were performed in parallel to confirm the activity of the hepatocytes. […] Aliquots of testosterone were withdrawn (n=1) at 0, 5, 15, 30, 60, and 120 minutes. Aliquots of 7-HC were withdrawn (n=1) at 0 and 15 minutes. The reaction was immediately terminated by adding three volumes of ice-cold MeCN containing IS. The samples were then mixed and spun by centrifuge to precipitate proteins. An aliquot of the supernatant was then diluted with water. Calibration standards for the analysis of 7-HC metabolites were prepared in matched matrix. […] All samples were analyzed by LC-MS/MS. The peak area response ratio (PARR) vs. IS was compared to the PARR at time 0 to determine the percent remaining at each time point. Half-lives and clearance values were calculated using GraphPad software, fitting to a single-phase exponential decay equation.
(§2) Mixed-gender human cryopreserved hepatocytes, male Sprague-Dawley rat cryopreserved hepatocytes, male CD-1 mouse cryopreserved hepatocytes, male beagle dog cryopreserved hepatocytes, and male cynomolgus monkey cryopreserved hepatocytes were thawed and pooled into KHB buffer (pH 7.4) and kept on ice prior to the experiments. […] Each experiment was performed in triplicate. The final DMSO content in the incubation mixture was ≤0.1%.
(§3) Positive controls, testosterone (1 μM) and 7-hydroxycoumarin (7-HC) (100 μM), were performed in parallel to confirm the activity of the hepatocytes. […] Aliquots of testosterone were withdrawn (n=1) at 0, 5, 15, 30, 60, and 120 minutes. Aliquots of 7-HC were withdrawn (n=1) at 0 and 15 minutes. The reaction was immediately terminated by adding three volumes of ice-cold MeCN containing IS. The samples were then mixed and spun by centrifuge to precipitate proteins. An aliquot of the supernatant was then diluted with water. Calibration standards for the analysis of 7-HC metabolites were prepared in matched matrix. […] All samples were analyzed by LC-MS/MS. Analytical conditions are outlined below. The peak area response ratio (PARR) vs. IS was compared to the PARR at time 0 to determine the percent remaining at each time point. Half-lives and clearance values were calculated using GraphPad software, fitting to a single-phase exponential decay equation.

human hepatocytes = test: metabolic stability in cryopreserved hepatocytes; assay type: in vitro ADME
Method: as §1, §2, §3

[4] = metabolic stability in cryopreserved hepatocytes; assay type: in vitro ADME, cynomolgus monkey
Method: as §1, §2, §3

[5] = metabolic stability in cryopreserved hepatocytes; assay type: in vitro ADME, mouse
Method: as §1, §2, §3

[6] = metabolic stability in cryopreserved hepatocytes; assay type: in vitro ADME, dog
Method: Mixed-gender human cryopreserved hepatocytes, male Sprague-Dawley rat cryopreserved hepatocytes, male CD-1 mouse cryopreserved hepatocytes, male beagle dog cryopreserved hepatocytes, and male cynomolgus monkey cryopreserved hepatocytes were used for the study. The hepatocytes were thawed, pooled into Krebs Henseleit buffer (KHB, pH 7.4), and kept on ice prior to the experiments. […] Each experiment was performed in triplicate. The final DMSO content in the incubation mixture was ≤0.1%. […] Aliquots of testosterone were withdrawn (n=1) at 0, 5, 15, 30, 60, and 120 minutes. Aliquots of 7-HC were withdrawn (n=1) at 0 and 15 minutes. The reaction was immediately terminated by adding three volumes of ice-cold MeCN containing IS. The samples were then mixed and spun by centrifuge to precipitate proteins. An aliquot of the supernatant was then diluted with water. Calibration standards for the analysis of 7-HC metabolites were prepared in matched matrix. […] All samples were analyzed by LC-MS/MS. The peak area response ratio (PARR) vs. IS was compared to the PARR at time 0 to determine the percent remaining at each time point. Half-lives and clearance values were calculated using GraphPad software, fitting to a single-phase exponential decay equation.
as §2
Aliquots of testosterone were withdrawn (n=1) at 0, 5, 15, 30, 60, and 120 minutes. Aliquots of 7-HC were withdrawn (n=1) at 0 and 15 minutes. The reaction was immediately terminated by adding three volumes of ice-cold MeCN containing IS. The samples were then mixed and spun by centrifuge to precipitate proteins. An aliquot of the supernatant was then diluted with water. Calibration standards for the analysis of 7-HC metabolites were prepared in matched matrix. […] All samples were analyzed by LC-MS/MS. Analytical conditions are outlined below. The peak area response ratio (PARR) vs. IS was compared to the PARR at time 0 to determine the percent remaining at each time point. Half-lives and clearance values were calculated using GraphPad software, fitting to a single-phase exponential decay equation.

P-GP = P-GP (Homo sapiens, UniProt P08183); test: in vitro; settings: pH 7.4
P-GP, sequence (P08183 whole entry): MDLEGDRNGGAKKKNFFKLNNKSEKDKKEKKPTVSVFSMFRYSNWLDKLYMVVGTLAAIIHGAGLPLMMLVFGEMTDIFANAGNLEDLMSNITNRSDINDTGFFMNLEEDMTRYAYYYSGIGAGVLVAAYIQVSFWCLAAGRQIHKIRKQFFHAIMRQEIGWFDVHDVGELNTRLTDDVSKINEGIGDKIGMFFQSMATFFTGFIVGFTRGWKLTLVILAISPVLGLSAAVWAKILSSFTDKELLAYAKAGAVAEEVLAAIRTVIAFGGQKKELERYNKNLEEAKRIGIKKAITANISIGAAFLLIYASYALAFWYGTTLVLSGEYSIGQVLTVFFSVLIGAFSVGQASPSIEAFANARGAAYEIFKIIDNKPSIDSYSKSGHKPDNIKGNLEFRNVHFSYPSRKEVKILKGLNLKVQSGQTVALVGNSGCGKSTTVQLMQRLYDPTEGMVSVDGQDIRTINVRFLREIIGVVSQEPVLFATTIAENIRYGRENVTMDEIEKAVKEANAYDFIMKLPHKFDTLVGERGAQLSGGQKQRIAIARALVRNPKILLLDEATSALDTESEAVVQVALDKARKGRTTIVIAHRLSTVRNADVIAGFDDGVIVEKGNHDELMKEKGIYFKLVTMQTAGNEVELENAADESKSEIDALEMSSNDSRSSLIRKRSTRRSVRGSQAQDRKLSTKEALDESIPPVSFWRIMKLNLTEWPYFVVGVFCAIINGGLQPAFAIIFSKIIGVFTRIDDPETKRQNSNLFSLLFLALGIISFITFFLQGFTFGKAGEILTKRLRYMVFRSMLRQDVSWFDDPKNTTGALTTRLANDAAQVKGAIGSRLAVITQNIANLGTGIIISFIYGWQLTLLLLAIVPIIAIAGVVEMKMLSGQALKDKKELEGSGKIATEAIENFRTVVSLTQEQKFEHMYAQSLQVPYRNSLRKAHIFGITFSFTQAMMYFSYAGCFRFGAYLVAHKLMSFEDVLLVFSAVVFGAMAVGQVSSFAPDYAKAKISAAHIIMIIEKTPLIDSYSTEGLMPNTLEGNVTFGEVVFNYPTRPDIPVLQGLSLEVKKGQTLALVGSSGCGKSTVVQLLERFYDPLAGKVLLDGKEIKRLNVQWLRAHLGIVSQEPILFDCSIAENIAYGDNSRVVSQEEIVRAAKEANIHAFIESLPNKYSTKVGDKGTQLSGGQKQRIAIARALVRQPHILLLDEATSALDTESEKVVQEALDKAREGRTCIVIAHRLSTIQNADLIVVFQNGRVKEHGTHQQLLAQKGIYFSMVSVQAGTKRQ

[7] = Rat cryopreserved hepatocytes, positive control 7-hydroxycoumarin 100 μM
[8] = Rat hepatocytes, from 7-hydroxycoumarin (7-HC) 100 μM positive control
[9] = Human cryopreserved hepatocytes, positive control 7-hydroxycoumarin 100 μM
[10] = Human hepatocytes, from 7-hydroxycoumarin (7-HC) 100 μM positive control
[11] = Monkey cryopreserved hepatocytes, positive control 7-hydroxycoumarin 100 μM
[12] = Monkey hepatocytes, from 7-hydroxycoumarin (7-HC) 100 μM positive control
[13] = Mouse cryopreserved hepatocytes, positive control 7-hydroxycoumarin 100 μM
[14] = Mouse hepatocytes, from 7-hydroxycoumarin (7-HC) 100 μM positive control
[15] = Dog cryopreserved hepatocytes, positive control 7-hydroxycoumarin 100 μM
[16] = Dog hepatocytes, from 7-hydroxycoumarin (7-HC) 100 μM positive control

| Compound | Formation Rate [3, 7] [pmol/min/10^6 cells] | Formation Rate [3, 8] [pmol/min/10^6 cells] | Formation Rate (human hepatocytes; [9]) [pmol/min/10^6 cells] | Formation Rate (human hepatocytes; [10]) [pmol/min/10^6 cells] | Formation Rate [4, 11] [pmol/min/10^6 cells] | Formation Rate [4, 12] [pmol/min/10^6 cells] | Formation Rate [5, 13] [pmol/min/10^6 cells] | Formation Rate [5, 14] [pmol/min/10^6 cells] | Formation Rate [6, 15] [pmol/min/10^6 cells] | Formation Rate [6, 16] [pmol/min/10^6 cells] | further results |
| --- | --- | --- | --- | --- | --- | --- | --- | --- | --- | --- | --- |
| S=P(N1CC1)(N1CC1)N1CC1 [Thio-TEPA] |  |  |  |  |  |  |  |  |  |  | activity at 20 min, 0.123 µM (CYP2B6 [1]; 0.123 μM): 97%; activity at 20 min, 0.37 µM (CYP2B6 [1]; 0.370 μM): 97.3%; activity at 20 min, 3.33 µM (CYP2B6 [1]; 3.33 μM): 69.7%; activity at 20 min, 10 µM (CYP2B6 [1]; 10.0 μM): 44.3%; activity at 20 min, 30 µM (CYP2B6 [1]; 30.0 μM): 25.6%; activity at 20 min, 0.37 µM (CYP2B6 [2]; pre-incubation 30 min +NADPH): 86.4%; activity at 20 min, 3.33 µM (CYP2B6 [2]; pre-incubation 30 min +NADPH): 37.6%; activity at 20 min, 10 µM (CYP2B6 [2]; pre-incubation 30 min +NADPH): 18%; activity at 20 min, 30 µM (CYP2B6 [2]; pre-incubation 30 min +NADPH): 11.7%; activity at 20 min, 0.37 µM (CYP2B6 [2]; pre-incubation 30 min −NADPH): 92.5%; activity at 20 min, 3.33 µM (CYP2B6 [2]; pre-incubation 30 min −NADPH): 78.5%; activity at 20 min, 10 µM (CYP2B6 [2]; pre-incubation 30 min −NADPH): 58.6%; activity at 20 min, 30 µM (CYP2B6 [2]; pre-incubation 30 min −NADPH): 41.4% |
| CC(=O)CC(c1ccccc1)c1c(O)c2ccccc2oc1=O (stereo not shown) [Warfarin, warfarin] |  |  |  |  |  |  |  |  |  |  | fraction unbound at 4 h, 10 μM (in vitro; Beagle, dog, % Bound Mean): 0.026; fraction unbound at 4 h, 10 μM (in vitro; Beagle, dog, % Bound R1-R3): 0.027; fraction unbound at 4 h, 10 μM (in vitro; CD-1, mouse, % Bound Mean): 0.217; fraction unbound at 4 h, 10 μM (in vitro; CD-1, mouse, % Bound R1-R3): 0.226; fraction unbound at 4 h, 10 μM (in vitro; monkey, % Bound Mean): 0.006; fraction unbound at 4 h, 10 μM (in vitro; monkey, % Bound R1-R3): 0.007 |
| O=c1ccc2ccc(OS(=O)(=O)[O-])cc2o1.[K+] [Compound 7-HC-S] | 34.0 | 34 | 7.74 | 7.74 | 13.3 | 13.3 | 6.36 | 6.36 | 24.5 | 24.5 |  |
| O=C(O)[C@H]1O[C@@H](Oc2ccc3ccc(=O)oc3c2)[C@H](O)[C@@H](O)[C@@H]1O [Compound 7-HC-G] | 253 | 253 | 316 | 316 | 279 | 279 | 234 | 234 | 301 | 301 |  |
| C/C=C/C[C@@H](C)C(=O)[C@H]1C(=O)N[C@@H](C(C)C)C(=O)N(C)CC(=O)N(C)[C@@H](CC(C)C)C(=O)N[C@@H](C(C)C)C(=O)N(C)[C@@H](CC(C)C)C(=O)N[C@@H](C)C(=O)N[C@H](C)C(=O)N(C)[C@@H](CC(C)C)C(=O)N(C)[C@@H](CC(C)C)C(=O)N(C)[C@@H](C(C)C)C(=O)N1C [Valspodar, valspodar] |  |  |  |  |  |  |  |  |  |  | inhibition at 120 min, 1 µM (P-GP): 100% |
